Laboratory results from patent publication US20230172894A1, “COMBINATION TREATMENT FOR FUMARATE-RELATED DISEASES” (IMCYSE SA, priority 2020, published 2023).
Structures can show the parent of a compound that is named as a salt. Where two headings read alike, the source gives them in different places.

Assays:
[1] = system: experimental auto-immune encephalomyelitis (EAE) development in mice; conditions: Example 3; for mice died in group: 16 mice per group
Excerpt: Example 3: Effect of the therapeutic administration of an immunogenic peptide comprising a MOG35-55 MHCII T cell epitope linked to a KCRC (SEQ ID NO: 65) or KCRPYC (SEQ ID NO: 84) oxidoreductase motif in combination with dimethyl fumarate (BG-12, […]™) on experimental auto-immune encephalomyelitis (EAE) development in mice.
The study used a total of 128 female C57BL/6 mice (Taconic Biosciences, 9 weeks old on Day 0). Mice were acclimated for 7 days prior to the first injection. Mice were assigned to groups in a balanced manner to achieve similar average weight across the groups at the start of the study.
Treatment 1 was administered once on each of the days indicated in Table 4, s.c., at a volume of 0.05 mL/site, each mouse receiving injection at two sites, for a total of 0.1 mL/mouse/dosing day. IMCY-0189 (CXXC oxidoreductase motif, IMCY-0453 (CXC oxidoreductase motif) or IMCY-0455 (CXXXC oxidoreductase motif) peptide total dose was 30 μg per administration.
(§1) BG-12 was dosed at 100 mg/kg.
(§2) All dosing were done at the same time (+/−1 hour) each dosing day. For the BID groups there were no less than 10 and no more than 14 hours between doses.
(SEQ ID NO: 266), comprising an oxidoreductase motif KCRC (SEQ ID NO: 65), a linker GW, a murine Myelin Oligodendrocyte Glycoprotein (MOG35-55) MHCII T cell epitope […] (SEQ ID NO: 169) and a flanking sequence HLYR (SEQ ID NO: 186) (Smart Bioscience) was solubilized immediately before use. Lyophilized IMCY-0453 was thawed at room temperature for 10 minutes, resuspended in Na Acetate buffer 50 mM NaCl 0.9% pH 5.4 and incubated at room temperature for 10 minutes. Reconstituted peptide was then mixed with Imject™ Alum Adjuvant before injection.
(SEQ ID NO: 268), comprising an oxidoreductase motif KCRPYC (SEQ ID NO: 84), a linker GW, a murine Myelin Oligodendrocyte Glycoprotein (MOG35-55) MHCII T cell epitope […] (SEQ ID NO: 169) and a flanking sequence HLYR (SEQ ID NO: 186) (Smart Bioscience) was solubilized immediately before use. Lyophilized IMCY-0455 was thawed at room temperature for 10 minutes, resuspended in Na Acetate buffer 50 mM NaCl 0.9% pH 5.4 and incubated at room temperature for 10 minutes. Reconstituted peptide was then mixed with Imject™ Alum Adjuvant before injection.
Treatment 2 was prepared as described in example 2.
EAE induction, scoring and statistical analysis were performed as described in example
(§3) EAE development was evaluated by comparing clinical EAE readouts for all groups to the negative control (Saline/Vehicle) group.

[2] = system: experimental auto-immune encephalomyelitis (EAE) development in mice; assay: Example 1: spinal cord histology (H&E inflammatory foci, anti-MBP demyelination score) in EAE mice; assay type: in vivo, female C57BL/6 mice; conditions: vs negative control, combination also vs each single treatment
Protocol: At the end of the study, all mice were euthanized, and spines were collected and placed in 10% buffered formalin for histological analysis.
For each spine, one H&E stained slide and one anti-MBP stained slide were prepared and analyzed. Each slide contained a section with samples from lumbar, thoracic and cervical of spinal cord (3 samples). All analysis was performed by a pathologist blinded to the experimental groups and all clinical readouts.
Inflammatory foci of approximately 20 cells were counted in each H&E stained section. When inflammatory infiltrates consisted of more than 20 cells, an estimate was made of how many foci of 20 cells were present.
Demyelination was scored in each anti-MBP (using immunohistochemistry) stained section. In anti-MBP sections, demyelination is observed as conspicuous unstained areas in white matter tracts and is associated with presence of large vacuoles. The demyelination score represents an estimate of demyelinated area for each section as follows: […]

[3] = system: experimental auto-immune encephalomyelitis (EAE) development in mice; conditions: Example 2; for mice died in group: 16 mice per group; for disease onset: peptide 30 μg/Alum s.c. days 4, 9, 14, 19, BG-12 100 mg/kg p.o. BID days 0 to 27; for disease onset / AUC (area under the curve) of EAE scores / MMS (mean maximal score) / end score (clinical EAE score 0-5): single agents vs negative control, combinations vs peptides only or BG-12 only
Excerpt: Example 2: Effect of the therapeutic administration of an immunogenic peptide comprising a MOG35-55 MHCII T cell epitope linked or not to an HCPYC oxidoreductase motif in combination with dimethyl fumarate (BG-12, […]™) on experimental auto-immune encephalomyelitis (EAE) development in mice.
The study used a total of 96 female C57BL/6 mice (Taconic Biosciences, 10 weeks old on Day 0). Mice were acclimated for 14 days prior to the first injection. Mice were assigned to groups in a balanced manner to achieve similar average weight across the groups at the start of the study.
Treatment 1 was administered once on each of the days indicated in Table 3, s.c., at a volume of 0.05 mL/site, each mouse receiving injection at two sites, for a total of 0.1 mL/mouse/dosing day. IMCY-0189 or MOG35-55 peptide total dose was 30 μg per administration.
as §1, §2
Lyophilized mouse MOG35-55 peptide with the sequence […] (SEQ ID NO:205), comprising the mouse Myelin Oligodendrocyte Glycoprotein (MOG35-55) MHCII T cell epitope […] (SEQ ID NO:169), was solubilized immediately before use. Lyophilized MOG35-55 peptide was thawed at room temperature for 10 minutes, resuspended in Na Acetate buffer 50 mM NaCl 0.9% pH 5.4 and incubated at room temperature for 10 minutes. Reconstituted MOG35-55 peptide was then mixed with Imject™ Alum Adjuvant before injection. Note that the positions 35 to 55 refer to the mature protein, i.e. after cleavage of the signal peptide (AA 1-29), defined by SEQ ID NO: 208. In the full-length amino acid sequence of MOG (SEQ ID NO: 184), said peptide would be at positions 64-84.
Lyophilized IMCY-0189 was thawed at room temperature for 10 minutes, resuspended in Na Acetate buffer 50 mM NaCl 0.9% pH 5.4 and incubated at room temperature for 10 minutes. Reconstituted peptide was then mixed with Imject™ Alum Adjuvant before injection.
For Treatment 2, vehicle was 0.5% HPMC, 0.2% Tween 20, and 50 mM citrate buffer at pH 4. BG-12 (Santa Cruz Biotechnology, sc-239774) and was prepared at least every 2 weeks. At each preparation the required amount of BG-12 was weighed out into a mortar and triturated with a pestle. Vehicle was then added in small increments and mixed until the final volume was reached. The material was then vortexed and sonicated in a water bath until a homogeneous suspension was obtained. Formulated BG-12 was stored at 4° C., stirring continuously.
EAE induction, scoring and statistical analysis were performed as described in example 1.
as §3

[4] = system: experimental auto-immune encephalomyelitis (EAE) development in mice; assay: Example 4: serum neurofilament light (NF-L) levels in EAE mice; assay type: in vivo, female C57BL/6 mice; conditions: Day 28 serum, vs negative control
Protocol: On Day 28, blood was collected from all mice into gel clot activator tubes and allowed to clot at room temperature for ˜30 minutes. Blood is then centrifuged at ˜10000 g for 5 minutes. Serum was transferred into Eppendorf tubes and stored at −80° C. until shipment to Quanterix™. Serum Neurofilament light (NF-L) protein levels were quantified using Simoa® NF-light Advantage kit as described in example 1.
Serum neurofilaments levels were quantified as described in example 3.

Compound | mice died in group [1] | disease onset ([1]; peptide 30 μg/Alum s.c. days 4, 9, 14, 19, BG-12 100 mg/kg p.o. BID days 0 to 27, vs negative control) | AUC (area under the curve) of EAE scores ([1]; vs negative control) | MMS (mean maximal score) ([1]; vs negative control) | end score (clinical EAE score 0-5) ([1]; vs negative control) | level of inflammation (inflammatory foci in H&E stained spinal cord sections) [2] | mice died in group [3] | disease onset [3] | AUC (area under the curve) of EAE scores [3] | MMS (mean maximal score) [3] | end score (clinical EAE score 0-5) [3] | serum NF-L levels [4] | level of demyelination (anti-MBP stained sections, score 0-5) [2]
COC(=O)/C=C/C(=O)OC [BG-12, dimethyl fumarate, reference compound] | No mice died | postponed disease onset | statistically significant reduced | statistically significant reduced | reduced end score | reduced level of inflammation, although not statistically significant | No mice died | postponed disease onset | statistically significant reduced | statistically significant reduced | reduced end score | statistically significant reduced NF-L levels | 
HCPYCGWYRSPFSRVVHLYR [IMCY-0189] | No mice died |  |  |  |  | reduced level of both inflammation and demyelination, although not statistically significant | 1 mice | postponed disease onset | statistically significant reduced | statistically significant reduced | reduced end score | statistically significant reduced NF-L levels | reduced level of both inflammation and demyelination, although not statistically significant
